Results as given in patent publication US20230087118A1, “IMIDAZO[1,2-a][sequence] DERIVATIVES AND THEIR USE IN THE TREATMENT OF DISEASE” (priority 2019, published 2023).
Counter-ions that a name gives are not always drawn.

Target: T1, IRAK4 (Homo sapiens, UniProt Q9NWZ3)
T1 sequence (Q9NWZ3 1-460): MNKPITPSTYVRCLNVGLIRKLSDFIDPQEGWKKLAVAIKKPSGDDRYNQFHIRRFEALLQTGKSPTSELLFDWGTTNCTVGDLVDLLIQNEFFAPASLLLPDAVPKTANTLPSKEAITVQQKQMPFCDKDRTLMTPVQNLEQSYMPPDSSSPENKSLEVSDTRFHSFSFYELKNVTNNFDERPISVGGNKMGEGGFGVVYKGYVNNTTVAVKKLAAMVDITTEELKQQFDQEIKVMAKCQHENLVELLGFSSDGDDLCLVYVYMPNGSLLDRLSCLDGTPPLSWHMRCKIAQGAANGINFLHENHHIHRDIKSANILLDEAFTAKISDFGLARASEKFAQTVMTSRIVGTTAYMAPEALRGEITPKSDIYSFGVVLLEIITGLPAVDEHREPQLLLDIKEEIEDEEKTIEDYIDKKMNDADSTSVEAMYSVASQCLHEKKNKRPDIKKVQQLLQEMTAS
Assay: biochemical
Details: not given

| IC50 [µM] | SMILES |
| --- | --- |
| 0.034 | CCc1cccc(NC(=O)c2cn3cc(C4CCOCC4)nc3c(OC)n2)n1 [Example 86] |
| 0.0329 | COc1nc(C(=O)Nc2ccn(C(F)F)n2)cn2cc(C3CCOCC3)nc12 [Example 87] |
| 0.0509 | COc1nc(C(=O)Nc2ccn(C)n2)cn2cc(C3CCOCC3)nc12 [Example 88] |
| 5.69 | COc1nc(C(=O)Nc2ccnn2C)cn2cc(C3CCOCC3)nc12 [Example 89] |
| 0.0002 | COc1cccc(NC(=O)c2cn3cc(C4CCOCC4)nc3cc2OC(C)C)n1 [Example 93, 7-isopropoxy-N-(6-methoxypyridin-2-yl)-2-(tetrahydro-2H-pyran-4-yl)imidazo[1,2-a]pyridine-6-carboxamide] |
| 0.0178 | COc1cccc(NC(=O)c2cn3cc(C4CC5CCC(C4)O5)nc3cc2OC(C)C)n1 (centres unmarked) [Example 94, 2-(8-oxabicyclo[3.2.1]octan-3-yl)-7-isopropoxy-N-(6-methoxypyridin-2-yl)imidazo[1,2-a]pyridine-6-carboxamide] |
| 0.0005 | CCOc1cc2nc(C(F)F)cn2cc1C(=O)Nc1cccc(C(F)F)n1 [Example 95, 2-(Difluoromethyl)-N-(6-(difluoromethyl)pyridin-2-yl)-7-ethoxyimidazo[1,2-a]pyridine-6-carboxamide] |
| 0.0073 | CC(C)Oc1cc2nc(C(F)F)cn2cc1C(=O)Nc1cccc(C(F)F)n1 [Example 99] |
| 0.0178 | COc1cccc(NC(=O)c2cn3cc(C(F)F)nc3cc2OC(C)C)n1 [Example 100] |
| 0.0175 | COc1cccc(NC(=O)c2cn3cc(C(C)(F)F)nc3cc2OC(C)C)n1 [Example 101] |
| 0.0004 | COCCCc1cn2cc(C(=O)Nc3cccc(C(F)F)n3)c(OC(C)C)cc2n1 [Example 102, N-(6-(difluoromethyl)pyridin-2-yl)-7-isopropoxy-2-(3-methoxypropyl)imidazo[1,2-a]pyridine-6-carboxamide] |
| 0.0032 | COCCCc1cn2cc(C(=O)Nc3cccc(OC)n3)c(OC(C)C)cc2n1 [Example 103, 7-Isopropoxy-2-(3-methoxypropyl)-N-(6-methoxypyridin-2-yl)imidazo[1,2-a]pyridine-6-carboxamide] |
| 0.0476 | CCc1ncsc1NC(=O)c1cn2cc(C3CCOCC3)nc2cc1OC [Example 104] |
| 0.0669 | COc1cc2nc(C3CCOCC3)cn2cc1C(=O)Nc1csnc1C [Example 108] |
| 0.114 | COc1cc2nc(C3CCOCC3)cn2cc1C(=O)Nc1ccc(F)cc1OC(C)C [Example 109] |
| 0.0082 | COc1cc2nc(C3CCOCC3)cn2cc1C(=O)Nc1cccc(C)c1F [Example 110] |
| 0.0198 | COc1cc2nc(C3CCOCC3)cn2cc1C(=O)Nc1cscc1Cl [Example 111] |
| 0.514 | COc1ccc(Cl)cc1NC(=O)c1cn2cc(C3CCOCC3)nc2cc1OC [Example 112] |
| 0.0357 | COc1cc2nc(C3CCOCC3)cn2cc1C(=O)Nc1cccc(F)c1F [Example 113] |
| 0.0153 | COc1cc2nc(C3CCOCC3)cn2cc1C(=O)Nc1cccc(Cl)c1F [Example 114] |
| 0.0061 | COc1cc2nc(C3CCOCC3)cn2cc1C(=O)Nc1cccc(C)c1Cl [Example 115] |
| 0.0106 | COc1cc2nc(C3CCOCC3)cn2cc1C(=O)Nc1cccc(C)n1 [Example 116] |
| 0.559 | COc1cc2nc(C3CCOCC3)cn2cc1C(=O)Nc1ccc(C)n(C)c1=O [Example 182] |
| 0.0069 | COc1cc2nc(C3CCOCC3)cn2cc1C(=O)Nc1cccn(C)c1=O [Example 183] |
| 0.208 | COc1cc2nc(C3CCOCC3)cn2cc1C(=O)Nc1ccn(CC2CC2)n1 [Example 184] |
| 0.0434 | CCn1cccc(NC(=O)c2cn3cc(C4CCOCC4)nc3cc2OC)c1=O [Example 185] |
| 0.312 | COc1cc2nc(C3CCOCC3)cn2cc1C(=O)Nc1cnn(C)c1C1CC1 [Example 186] |

| IC50 [µM] | SMILES |
| --- | --- |
| 0.148 | COc1cc2nc(C3CCOCC3)cn2cc1C(=O)Nc1cccnc1C(C)C [Example 187] |
| 0.326 | COc1cc2nc(C3CCOCC3)cn2cc1C(=O)Nc1ccc(O)nc1OC [Example 188] |
| 0.0165 | COc1cc2nc(C3CCOCC3)cn2cc1C(=O)Nc1cccnc1O [Example 189] |
| 0.111 | COc1cc2nc(C3CCOCC3)cn2cc1C(=O)Nc1ccn(CCF)n1 [Example 190] |
| 0.27 | COc1cc2nc(C3CCOCC3)cn2cc1C(=O)Nc1ccn(C2CCCC2)n1 [Example 191] |
| 0.0429 | COc1cc2nc(C3CCOCC3)cn2cc1C(=O)Nc1cccn(C(C)C)c1=O [Example 192] |
| 0.0027 | COc1cc2nc(C3CCOCC3)cn2cc1C(=O)Nc1cccnc1OC [Example 193] |
| 0.624 | COc1cc2nc(C3CCOCC3)cn2cc1C(=O)Nc1cnn(C)c1C [Example 194] |
| 0.123 | COc1cnccc1NC(=O)c1cn2cc(C3CCOCC3)nc2cc1OC [Example 195] |
| 0.0091 | COc1cc2nc(C3CCOCC3)cn2cc1C(=O)Nc1cccnc1OCC(F)F [Example 196] |
| 0.166 | COc1cc2nc(C3CCOCC3)cn2cc1C(=O)Nc1ccn(C2CC2(F)F)n1 (centres unmarked) [Example 197] |
| 0.0759 | COc1cc2nc(C3CCOCC3)cn2cc1C(=O)Nc1cccn(CC(F)(F)F)c1=O [Example 198] |
| 0.181 | CCc1c(NC(=O)c2cn3cc(C4CCOCC4)nc3cc2OC)cnn1C [Example 199] |
| 0.0115 | COc1cc2nc(C3CCOCC3)cn2cc1C(=O)Nc1cccnc1OC(C)C [Example 200] |
| 0.378 | COc1cc2nc(C3CCOCC3)cn2cc1C(=O)Nc1ccnc(C)c1OC [Example 201] |
| 0.0137 | COc1cc2nc(C3CCOCC3)cn2cc1C(=O)Nc1cccc(CO)n1 [Example 202] |
| 0.429 | COc1cc2nc(C3CCOCC3)cn2cc1C(=O)Nc1ncnc2cccnc12 [Example 204, 7-Methoxy-N-(pyrido[3,2-d]pyrimidin-4-yl)-2-(tetrahydro-2H-pyran-4-yl)imidazo[1,2-a]pyridine-6-carboxamide] |
| 0.0209 | COc1ncccc1NC(=O)c1cn2cc(C3CCOCC3)nc2c(OC)n1 [Example 208] |
| 0.0057 | CCOc1nc(C(=O)Nc2cccnc2OC)cn2cc(C3CCOCC3)nc12 [Example 209] |
| 0.302 | COc1nc(C(=O)Nc2cccc3c2CCC3)cn2cc(C3CCOCC3)nc12 [Example 210] |
| 0.0116 | CCOc1nc(C(=O)Nc2cccc3c2CCC3)cn2cc(C3CCOCC3)nc12 [Example 211] |
| 0.0607 | Cc1nc(C(=O)Nc2cccc(C(F)F)n2)cn2cc(C3CCOCC3)nc12 [Example 213] |
| 0.0715 | O=C(Nc1cccc(C(F)F)n1)c1cc(Cl)c2nc(C3CCOCC3)cn2c1 [Example 214] |
| 0.0013 | CC(C)Oc1cc2nc(C34CC(C3)C4)cn2cc1C(=O)Nc1cccc(C(F)F)n1 [Example 215] |
| 0.0005 | COc1ncccc1NC(=O)c1cn2cc(C34COC(C)(C3)C4)nc2cc1OC(C)C [Example 216] |
| 0.0017 | CC(C)Oc1c(C(=O)Nc2cccc(C(F)F)n2)cn2cc(C34COC(C)(C3)C4)nc2c1F [Example 217] |

Same assay, conditions: IRAK4 Biochemical Assay (1 mM ATP, 2 h) IC50 (μM), 1 mM ATP, 2 h, 100 pM IRAK4

| IC50 [µM] | SMILES |
| --- | --- |
| 0.0003 | COc1cccc(NC(=O)c2cn3cc(C45COC(C)(C4)C5)nc3cc2OC(C)C)n1 [Example 97, 7-Isopropoxy-N-(6-methoxypyridin-2-yl)-2-(1-methyl-2-oxabicyclo[2.1.1]hexan-4-yl)imidazo[1,2-a]pyridine-6-carboxamide] |
| 0.0341 | COc1nc(C(=O)Nc2cccc3c2OCCC3)cn2cc(C3CCOCC3)nc12 [Example 205, N-chroman-8-yl-8-methoxy-2-tetrahydropyran-4-yl-imidazo[1,2-a]pyrazine-6-carboxamide trifluoroacetate] |
| 0.0128 | COc1nc(C(=O)Nc2cccc(C(F)F)n2)cn2cc(C3CCOCC3)nc12 [Example 206, N-[6-(difluoromethyl)-2-pyridyl]-8-methoxy-2-tetrahydropyran-4-ylimidazo[1,2-a]pyrazine-6-carboxamide trifluoroacetate] |
| 0.0147 | CCOc1nc(C(=O)Nc2cccc(C(F)F)n2)cn2cc(C3CCOCC3)nc12 [Example 207, N-[6-(difluoromethyl)-2-pyridyl]-8-ethoxy-2-tetrahydropyran-4-ylimidazo[1,2-a]pyrazine-6-carboxamide trifluoroacetate] |
| 0.016 | COc1cc2nc(C3CCOCC3)cn2cc1C(=O)Nc1cc(F)cn(C)c1=O [Example 212, N-(5-fluoro-1-methyl-2-oxo-1,2-dihydropyridin-3-yl)-7-methoxy-2-(tetrahydro-2H-pyran-4-yl)imidazo[1,2-a]pyridine-6-carboxamide trifluoroacetate] |

| SMILES | IC50 [µM] |
| --- | --- |
| CCOc1cc2nc(C3CN(CC(F)F)C3)cn2cc1C(=O)Nc1cccc(C(F)F)n1 [Example 90] | 0.0015 |
| CC(C)Oc1cc2nc(C3CCOCC3)cn2cc1C(=O)Nc1cccc(C(F)F)n1 [Example 92, N-(6-(difluoromethyl)pyridin-2-yl)-7-isopropoxy-2-(tetrahydro-2H-pyran-4-yl)imidazo[1,2-a]pyridine-6-carboxamide] | 0.0003 |
| CC(C)Oc1cc2nc(C34COC(C)(C3)C4)cn2cc1C(=O)Nc1cccc(C(F)F)n1 [Example 96, N-(6-(difluoromethyl)pyridin-2-yl)-7-isopropoxy-2-(1-methyl-2-oxabicyclo[2.1.1]hexan-4-yl)imidazo[1,2-a]pyridine-6-carboxamide] | 0.0002 |
| CC(C)Oc1cc2nc(C(C)(F)F)cn2cc1C(=O)Nc1cccc(C(F)F)n1 [Example 98, 2-(1,1-Difluoroethyl)-N-(6-(difluoromethyl)pyridin-2-yl)-7-isopropoxyimidazo[1,2-a]pyridine-6-carboxamide] | 0.0038 |
